Values after ≈ are worked out from the molar mass of the structure shown. Read-outs that look alike come from different tables or passages of the source.
Experiments:
[1] = system: AG215, Klebsiella pneumonia; assay: MIC reference strain AG215; assay type: cell-based; conditions: Klebsiella pneumoniae, read-out: MIC AG215 K. pneumonia
Excerpt: (§1) Minimal inhibitory concentrations (MIC) have been determined by broth microdilution assays (CLSI. Methods for Dilution Antimicrobial Susceptibility Tests for Bacteria That Grow Aerobically; Approved Standard—Tenth Edition. CLSI document M07-A10. Wayne, Pa.: Clinical and Laboratory Standards Institute; 2015.).
(§2) Table 4 and 5 show the antibacterial activity of the compounds of the invention against bacterial reference strains (table 4) and against representative clinical isolates (table 5).
(§3) Legend to Tables: GEN, gentamicin; AMK, amikacin; PLZ, plazomicin; APR, apramycin; AG212, Escherichia coli ATCC25922; AG215, Klebsiella pneumonia; AG220, Pseudomonas aeruginosa ATCC27853; AG225, Acinetobacter baumannii pittii; AG290, Enterobacter cloacae; […], Mycobacterium smegmatis. MICs for AG192 have been determined in the presence of 0.5 μg/mL of ampicillin in the medium to mimic the synergistic effect of aminoglycoside and β-lactam antibiotics combination therapy in the treatment of Enterococcus infections in humans.

[2] = system: K. pneum. AG269 AAC(3)-II AAC(6′)-I rmtB; assay: Activity against G1405-methylated 16S-rRNA, clinical isolate AG269; assay type: cell-based
Excerpt: as §1

[3] = system: AG290, Enterobacter cloacae; assay: MIC reference strain AG290; assay type: cell-based; conditions: Enterobacter cloacae, read-out: MIC AG290 E. cloacae
Excerpt: as §1, §2, §3

[4] = system: Engineered E. coli pH430 WT; assay: Activity, engineered E. coli pH430 WT; assay type: cell-based; conditions: wild type
Excerpt: as §1

AG031 P. aer. APH(3′)-II = assay: Antibacterial activity, clinical isolate AG031; assay type: cell-based; set-up: unit not given here
Excerpt: as §1, §2

AG038 MRSA = assay: Antibacterial activity, clinical isolate AG038; assay type: cell-based; set-up: unit not given here
Excerpt: as §1, §2

[5] = system: AG225, Acinetobacter baumannii pittii; assay: MIC reference strain AG225; assay type: cell-based; conditions: Acinetobacter baumannii, read-out: MIC AG225 A. baumannii
Excerpt: as §1, §2, §3

isolates carrying apmA = assay: MIC broth microdilution, apmA; assay type: cell-based; conditions: apmA resistance gene
Excerpt: as §1, with “2015.). […]” for “2015.).”
(§4) Minimal inhibitory concentrations (μg/ml) against clinical isolates from Institute of Medical Microbiology, Univ. Zurich, and the IC50 values for bacterial, human mitochondrial and human cytosolic ribosomes are indicated.
(§5) The Minimal inhibitory concentrations (MICs, μg/ml) against clinical isolates from Institute of Medical Microbiology, Univ Zurich, and the IC50 values for bacterial, human mitochondrial and human cytosolic ribosomes are indicated.

[6] = system: SZ380, Mycobacterium smegmatis; assay: MIC reference strain SZ380; assay type: cell-based; conditions: Mycolicibacterium smegmatis, read-out: MIC SZ380 M. smegmatis
Excerpt: as §1, §2, §3

[7] = system: human cytosolic ribosomes; assay: in-vitro translation assay, human cytosolic ribosomes; assay type: biochemical
Excerpt: (§6) IC50 values for bacterial, human chimeric, and rabbit reticulocyte ribosomes have been determined by in-vitro translation assays as described previously (Proc. Nat. Ac. Sci USA 2012, 109(27):10984-10989).
(§7) Minimal inhibitory concentrations (MICs, […]) against clinical isolates from Institute of Medical Microbiology, Univ. Zurich, and the IC50 values for bacterial, human mitochondrial and human cytosolic ribosomes are indicated.

[8] = system: human mitochondrial ribosomes; assay: in-vitro translation assay, human mitochondrial (human chimeric) ribosomes; assay type: biochemical
Excerpt: as §6, §7

[9] = system: clinical isolates carrying AAC(3)-IV; assay: MIC broth microdilution, AAC(3)-IV; assay type: cell-based; conditions: for MIC: read-out: MIC AAC(3)-IV
Excerpt: as §1, §7, §4, §5

AG173 E. coli AAC(3)-IV = assay: Antibacterial activity, clinical isolate AG173; assay type: cell-based
Excerpt: as §1, §2

[10] = system: Enterob. AG302 AAC(3)-II AAC(6′)-I rmtC; assay: Activity against G1405-methylated 16S-rRNA, clinical isolate AG302; assay type: cell-based
Excerpt: as §1

[11] = system: AG212, Escherichia coli ATCC25922; assay: MIC reference strain AG212; assay type: cell-based; conditions: Escherichia coli
Excerpt: as §1, §2, §3

AG001 E. coli WT = assay: Antibacterial activity, clinical isolate AG001; assay type: cell-based; set-up: unit not given here
Excerpt: as §1, §2

WT clinical isolates = assay: MIC broth microdilution, WT; assay type: cell-based; conditions: read-out: MIC WT, clinical isolates, IMM Univ. Zurich; wild type
Excerpt: as §1, §7, §4, §5

[12] = system: A baum. AG227 APH(3′)-I armA; assay: Activity against G1405-methylated 16S-rRNA, clinical isolate AG227; assay type: cell-based
Excerpt: as §1

ATCC19977 M. abcessus = assay: MIC reference strain ATCC19977; assay type: cell-based; conditions: read-out: MIC ATCC19977 M. abcessus
Excerpt: as §1, §2

[13] = system: E. coli AG153 AAC(3)-II APH(3′)-II rmtB; assay: Activity against G1405-methylated 16S-rRNA, clinical isolate AG153; assay type: cell-based
Excerpt: as §1

bacterial ribosomes = assay: in-vitro translation assay, bacterial ribosomes; assay type: biochemical
Excerpt: as §6, §7

[14] = system: AG220, Pseudomonas aeruginosa ATCC27853; assay: MIC reference strain AG220; assay type: cell-based; conditions: Pseudomonas aeruginosa
Excerpt: as §1, §2, §3

[15] = system: Engineered E. coli pH424 armA; assay: Activity against G1405-methylated 16S-rRNA, E. coli pH424 armA; assay type: cell-based
Excerpt: as §1

[16] = system: AG039 MRSA AAC(6′)-I ANT(4′)-I; assay: Antibacterial activity, clinical isolate AG039; assay type: cell-based
Excerpt: as §1, §2

[17] = system: clinical isolates carrying APH(3′)-I; assay: MIC broth microdilution, APH(3′)-I; assay type: cell-based; conditions: IMM Univ. Zurich
Excerpt: as §1, §7

[18] = system: AG042 MRSA AAC(6′)-I ANT(4′)-I APH(2′); assay: Antibacterial activity, clinical isolate AG042; assay type: cell-based; set-up: unit not given here
Excerpt: as §1, §2

AG163 E. coli APH(3′)-I = assay: Antibacterial activity, clinical isolate AG163; assay type: cell-based
Excerpt: as §1, §2

[19] = system: clinical isolates carrying APH(3′)-VI; assay: MIC broth microdilution, APH(3′)-VI; assay type: cell-based; conditions: IMM Univ. Zurich
Excerpt: as §1, §7

[20] = system: AG033 P. aer. APH(3′)-II AAC(6′)-I; assay: Antibacterial activity, clinical isolate AG033; assay type: cell-based; set-up: unit not given here
Excerpt: as §1, §2

[21] = system: clinical isolates carrying APH(3′)-II; assay: MIC broth microdilution, APH(3′)-II; assay type: cell-based; conditions: clinical isolates, IMM Univ. Zurich; APH(3′)-II; read-out: MIC APH(3′)-II
Excerpt: as §1, §7

[22] = system: Engineered E. coli AG103 armA; assay: Activity against G1405-methylated 16S-rRNA, E. coli AG103 armA; assay type: cell-based
Excerpt: as §1

AG003 E. coli AAC(3)-II = assay: Antibacterial activity, clinical isolate AG003; assay type: cell-based
Excerpt: as §1, §2

[23] = system: Engineered E. coli pH425 rmtB; assay: Activity against G1405-methylated 16S-rRNA, E. coli pH425 rmtB; assay type: cell-based
Excerpt: as §1

[24] = system: Engineered E. coli pH427 rmtF; assay: Activity against G1405-methylated 16S-rRNA, E. coli pH427 rmtF; assay type: cell-based
Excerpt: as §1

[25] = system: Engineered E. coli pH426 rmtC; assay: Activity against G1405-methylated 16S-rRNA, E. coli pH426 rmtC; assay type: cell-based
Excerpt: as §1

AG032 P. aer. APH(3′)-II = assay: Antibacterial activity, clinical isolate AG032; assay type: cell-based; set-up: unit not given here
Excerpt: as §1, §2

AG055 E. coli WT = assay: Antibacterial activity, clinical isolate AG055; assay type: cell-based; set-up: unit not given here
Excerpt: as §1, §2

CN[C@H]1C(O)C2O[C@H](O[C@@H]3C(N)C[C@@H](N)[C@@H](O)[C@H]3OCCCN)C(N)C[C@@H]2O[C@@H]1O[C@H]1OC(CO)[C@@H](N)[C@H](O)C1O (stereo partly drawn) [DC213]
MIC [1]: 2 µg/mL
Activity K. pneum. AG269 AAC(3)-II AAC(6′)-I rmtB [2]: 4-8
MIC [3]: 4 to 8 µg/mL
Activity E. coli pH430 WT [4]: 4
Antibacterial activity AG031 P. aer. APH(3′)-II (AG031 P. aer. APH(3′)-II): 16-32
Antibacterial activity AG038 MRSA (AG038 MRSA): 4
MIC [5]: 8 µg/mL
MIC (isolates carrying apmA): 64 to 128 µg/mL (≈ 107 to 215 µM)
MIC [6]: 0.25 µg/mL
IC50 [7]: 210 µM
IC50 [8]: 327 µM
MIC [9]: 64 µg/mL (≈ 107 µM)
Antibacterial activity AG173 E. coli AAC(3)-IV (AG173 E. coli AAC(3)-IV): 128
Activity Enterob. AG302 AAC(3)-II AAC(6′)-I rmtC [10]: 4-8
MIC ([11]; ATCC25922, read-out: MIC AG212 E. coli): 4 to 8 µg/mL
Antibacterial activity AG001 E. coli WT (AG001 E. coli WT): 16
MIC (WT clinical isolates): 4 µg/mL (≈ 6.7 µM)
Activity A baum. AG227 APH(3′)-I armA [12]: 4-8
MIC (ATCC19977 M. abcessus): 1 µg/mL (≈ 1.68 µM)
Activity E. coli AG153 AAC(3)-II APH(3′)-II rmtB [13]: 32
IC50 (bacterial ribosomes): 0.21 µM
MIC ([14]; ATCC27853, read-out: MIC AG220 P. aeruginosa): 8 µg/mL
Activity E. coli pH424 armA [15]: 4

CNC1C(OC2OC(CO)C(N)C(O)C2O)OC2CC(N)C(OC3C(N)CC(N)C(O)C3OC3OC(CO)C(O)C3O)OC2C1O [DC131, 5-O—(β-D-Ribefuranosyl) apramycin]
MIC ([1]; reference strain): 2 µg/mL
Antibacterial activity AG039 MRSA AAC(6′)-I ANT(4′)-I [16]: 64
MIC [17]: 64 µg/mL (≈ 95.3 µM)
MIC ([3]; reference strain): 4 µg/mL
Activity E. coli pH430 WT [4]: 4
Antibacterial activity AG031 P. aer. APH(3′)-II (AG031 P. aer. APH(3′)-II): 64-128
Antibacterial activity AG042 MRSA AAC(6′)-I ANT(4′)-I APH(2′) [18]: 64
Antibacterial activity AG163 E. coli APH(3′)-I (AG163 E. coli APH(3′)-I): 8-16
Antibacterial activity AG038 MRSA (AG038 MRSA): 64
MIC ([5]; reference strain): 16 µg/mL
MIC [19]: 4 µg/mL (≈ 5.96 µM)
IC50 [7]: 319 µM
Antibacterial activity AG033 P. aer. APH(3′)-II AAC(6′)-I [20]: 128
MIC [21]: 8 µg/mL (≈ 11.9 µM)
IC50 [8]: 295 µM
activity against the IMM clinical isolates carrying the gene for AAC(3)-IV [9]: no activity
MIC ([9]; clinical isolates, IMM Univ. Zurich, AAC(3)-IV): > 32 µg/mL
Activity E. coli AG103 armA [22]: 1
Antibacterial activity AG003 E. coli AAC(3)-II (AG003 E. coli AAC(3)-II): 16
Activity E. coli pH425 rmtB [23]: 4
Antibacterial activity AG173 E. coli AAC(3)-IV (AG173 E. coli AAC(3)-IV): 16-32
Activity E. coli pH427 rmtF [24]: 4
MIC ([11]; reference strain ATCC25922, read-out: MIC AG212 E. coli): 8 µg/mL
Antibacterial activity AG001 E. coli WT (AG001 E. coli WT): 16
Activity E. coli pH426 rmtC [25]: 4
Antibacterial activity AG032 P. aer. APH(3′)-II (AG032 P. aer. APH(3′)-II): 64-128
MIC (ATCC19977 M. abcessus): 16 µg/mL (≈ 23.8 µM)
Antibacterial activity AG055 E. coli WT (AG055 E. coli WT): 16-32
IC50 (bacterial ribosomes): 0.11 µM
MIC ([14]; ATCC27853, reference strain ATCC27853, read-out: MIC AG220 P. aeruginosa): 64 µg/mL
Activity E. coli pH424 armA [15]: 2

— US11485751B2, “Apramycin derivatives” (WAYNE STATE UNIVERSITY, priority 2017, dated 2022)
